Data from publication PMC10763179 (Open access Macedonian journal of medical sciences, 2023).

Experiments:
[1] = tested on: larvae of marine crustaceans Artemia salina (Leach); assay: Brine shrimp toxicity bioassay; type: in vivo; settings: 24 h of exposure
[2] = tested on: HL-60(TB); assay: NCI60 screen; type: cell-based; settings: Homo sapiens, HL-60, read-out: inhibition of cell growth
[3] = tested on: K-562; assay: NCI60 screen; type: cell-based; settings: Homo sapiens, K562, read-out: inhibition of cell growth
[4] = tested on: SR; assay: NCI60 screen; type: cell-based; settings: Homo sapiens, read-out: inhibition of cell growth
[5] = tested on: COLO 205; assay: NCI60 screen; type: cell-based; settings: Homo sapiens, COLO 205, read-out: inhibition of cell growth
[6] = tested on: HCT-116; assay: NCI60 screen; type: cell-based; settings: Homo sapiens, HCT-116, read-out: inhibition of cell growth
[7] = tested on: HCT-15; assay: NCI60 screen; type: cell-based; settings: Homo sapiens, HCT-15, read-out: inhibition of cell growth
[8] = tested on: HT29; assay: NCI60 screen; type: cell-based; settings: Homo sapiens, HT-29, read-out: inhibition of cell growth
[9] = tested on: SW-620; assay: NCI60 screen; type: cell-based; settings: Homo sapiens, SW-620, read-out: inhibition of cell growth
[10] = tested on: MDA-MB-435; assay: NCI60 screen; type: cell-based; settings: Homo sapiens, MDA-MB-435, read-out: inhibition of cell growth
[11] = tested on: UACC-257; assay: NCI60 screen; type: cell-based; settings: Homo sapiens, UACC-257, read-out: inhibition of cell growth
[12] = tested on: UACC-62; assay: NCI60 screen; type: cell-based; settings: Homo sapiens, UACC-62, read-out: inhibition of cell growth
[13] = tested on: OVCAR-3; assay: NCI60 screen; type: cell-based; settings: Homo sapiens, OVCAR-3, read-out: inhibition of cell growth
[14] = tested on: CAKI-1; assay: NCI60 screen; type: cell-based; settings: Homo sapiens, CAKI-1, read-out: inhibition of cell growth
[15] = tested on: RXF 393; assay: NCI60 screen; type: cell-based; settings: Homo sapiens, RXF 393, read-out: inhibition of cell growth
[16] = tested on: TK-10; assay: NCI60 screen; type: cell-based; settings: Homo sapiens, TK-10, read-out: inhibition of cell growth
[17] = tested on: DU-145; assay: NCI60 screen; type: cell-based; settings: Homo sapiens, DU-145, read-out: inhibition of cell growth
[18] = tested on: MCF7; assay: NCI60 screen; type: cell-based; settings: Homo sapiens, MCF7, read-out: inhibition of cell growth
[19] = tested on: BT-549; assay: NCI60 screen; type: cell-based; settings: Homo sapiens, BT-549, read-out: inhibition of cell growth
[20] = tested on: T-47D; assay: NCI60 screen; type: cell-based; settings: Homo sapiens, T47D, read-out: inhibition of cell growth
[21] = tested on: NCI60 human tumor cell lines; assay: NCI60 screen; type: cell-based
[22] = Effect on hematopoiesis
[23] = Immunosuppressive activity

Question: Which “IC50 against the larvae of Artemia salina” value [1] does the source give for “hydroxyarglabin acetate [hydroxyarglabin acetate 12]” here?
Answer: 77.8 µg/mL

Question: And the “LD500” value [1]?
Answer: 77.8 mg/mL

Question: Which inhibition at 8.3 µM [2] does the source give for C=C1C(=O)O[C@@H]2[C@H]3C(C)=CC[C@@]34O[C@@]4(C)CC[C@@H]12 [Arglabin 6, arglabin] here?
Answer: 97.4%

Question: What about the inhibition at 8.3 µM [3] of the same molecule?
Answer: 73.8%

Question: And the inhibition at 8.3 µM [4]?
Answer: 97.8%

Question: And the inhibition at 8.3 µM [5]?
Answer: 57.6%

Question: And the inhibition at 8.3 µM [6]?
Answer: 82.6%

Question: And the inhibition at 8.3 µM [7]?
Answer: 75.4%

Question: What about the inhibition at 8.3 µM [8] of the same molecule?
Answer: 59.3%

Question: What about the inhibition at 8.3 µM [9] of the same molecule?
Answer: 70.9%

Question: What about the inhibition at 8.3 µM [10] of the same molecule?
Answer: 65.8%

Question: What about the inhibition at 8.3 µM [11] of the same molecule?
Answer: 55.9%

Question: And the inhibition at 8.3 µM [12]?
Answer: 74.2%

Question: What about the inhibition at 8.3 µM [13] of the same molecule?
Answer: 69.6%

Question: What about the inhibition at 8.3 µM [14] of the same molecule?
Answer: 73.4%

Question: And the inhibition at 8.3 µM [15]?
Answer: 67.3%

Question: What about the inhibition at 8.3 µM [16] of the same molecule?
Answer: 94.3%

Question: What about the inhibition at 8.3 µM [17] of the same molecule?
Answer: 88.5%

Question: And the inhibition at 8.3 µM [18]?
Answer: 71.1%

Question: What about the inhibition at 8.3 µM [19] of the same molecule?
Answer: 72.1%

Question: And the inhibition at 8.3 µM [20]?
Answer: 73.5%

Question: What about the inhibition at 8.3 µM ([21]; Homo sapiens, read-out: average value of cell growth inhibition for all 60 NCI60 human tumor cell lines) of the same molecule?
Answer: 45.9%

Question: And the “Mean tumor cell growth, %” value ([21]; mean over NCI60 panel, single dose 8.3 μM)?
Answer: 54.15%

Question: What about the “depressant effect on hematopoiesis” value [22] of the same molecule?
Answer: does not have a depressant effect on hematopoiesis

Question: What about the immunosuppressive activity [23] of the same molecule?
Answer: does not exhibit immunosuppressive activity

Question: Which “LD500” value [1] does the source give for C[S+](C)[O-] [dimethyl sulfoxide] here?
Answer: 930.27 mg/mL

Question: Which “LD500” value [1] does the source give for CC1=CCC23OC2(C)CCC2C(CN(C)C)C(=O)OC2C13.Cl (stereo not drawn) [13-dimethylamino-1,10β-epoxy-5,7α,6, 11 β(H)-guai-3,4-ene-6,12-olide hydrochloride, reference compound] here?
Answer: 20.6 mg/mL
